In US10105350B2, “Cosmetic preservatives as therapeutic corneoscleral tissue cross-linking agents” (THE TRUSTEES OF COLUMBIA UNIVERSITY IN THE CITY OF NEW YORK, priority 2014, dated 2018):
Read-outs that look alike come from different tables or passages of the source.

Key:
[1] = cross-linking (gel formation) with polyallylamine (PAA) hydrogel model system; conditions: with PAA at 37° C. and pH 7.4 phosphate buffered solution
Excerpt: Shown in Table 1 below are the results from a parallel study using a hydrogel functionalized amine cross-linking system (polyallylamine, or “PAA”) previously published for reactions using nitroalcohols (NAs). Li et al., “Mechanistic and catalytic studies of β-nitroalcohol crosslinking with polyamine,” J Appl Polym Sci. 2013; 128:3696-3701. The Table summarizes the results obtained in comparison studies using three of the higher order nitroalcohols previously reported (the nitrotriol HNPD, the nitrodiol MNPD, and the brominated nitrodiol known as Bronopol). The cross-linking efficacy of these nitroalcohol compounds were compared to two of the instantly disclosed formaldehyde releasing agents (diazolidinyl urea (DAU) and imidazolidinyl urea (IMU)). The time to gel formation indicates cross-linking efficacy in this system.

porcine scleral tissue = assay: scleral tissue cross-linking of cut porcine scleral pieces, shift in Tm by DSC
Description: Equatorial scleral strips approximately 6 mm×40 mm in size were obtained from multiple eyes. These strips were submerged in DPBS solution containing 1 mM EDTA to inactivate native collagenases and to prevent tissue dehydration during sample preparation. Each strip was further cut into smaller 4 mm×3 mm pieces. The scleral pieces were individually transferred to a 24 well plate and were incubated in 1 ml of cross-linking solution in 0.1M NaHCO3 buffer at either pH 8.5 or 7.4 for 30 mins at 25° C. without refreshing the solution. […] Negative controls were treated identically with vehicle. Post-treatment, all solutions were aspirated and samples were washed twice using DPBS to remove remnant cross-linking solution before being analyzed by DSC. A minimum of three independent determinations were carried out for each condition using scleral pieces originating from different porcine globes.
(§1) Thermal denaturation temperature (Tm) of all samples was measured using a Perkin-Elmer DSC 6000 Autosampler (Waltham, Mass.). Tissue samples were carefully blotted in a standardized, repetitive manner to remove excess solution/DPBS and transferred to pre-weighed 50 ul aluminum pans. The pans were immediately hermetically sealed using a DSC pan sealing press, which is used to prevent tissue dehydration due to evaporative losses. DSC scans were run using Pyris software (version 11.0) from 40° C. to 75° C. at a rate of 1° C./min and denaturation curves representing differential heat flow over time were recorded. DSC heat flow endotherm data was analyzed using the Pyris data analysis peak search function using a calculation limit of ±0.3° C. from the apparent thermal denaturation peak.
Conversely, scleral samples were subjected to non-paired t-tests assuming equal variance of data. […] All ΔTm values are reported in the form of mean value followed by standard error.

Salmonella = conditions: Ames, micronucleus and other assays as per footnotes; cited from earlier work
rat = conditions: cited from earlier work
[2] = from literature registry; cited from earlier work
[3] = test system: intact cadaveric rabbit cornea; assay: ex vivo rabbit corneal cross-linking simulation setup, shift in thermal denaturation temperature (Tm) by DSC; conditions: for cross-linking efficacy compared with nitroalcohol NP (250 mM, 60 minutes): FIG. 2, half of maximum allowed concentration (DAU 9 mM, SHMG 18.5 mM, DMDM 16 mM), 30 minutes; for ΔTm (shift in denaturation temperature of corneal tissue): Second Experimental Details, 30 mins, mean ± standard error
Description: 0.5% proparacaine was applied prior to the cross-linking solution. A cross-linking solution containing the formaldehyde releasing agent was then administered via a corneal reservoir for 30 minutes in 0.1M NaHCO3 at either pH 7.4 or 8.5. The epithelium was left intact. The control contralateral eye was treated identically with vehicle.
Effectiveness of cross-linking was based on shifts in thermal denaturation temperature (Tm) as measured by differential scanning calorimetry (DSC) (Perkin-Elmer DSC 6000).
Intact cadaveric rabbit heads with clear corneas were obtained fresh (within an hour of sacrifice) in adherence with the ARVO Statement For the Use of Animals in Ophthalmic and Vision Research. FAR solutions at concentrations equivalent to half the maximum allowed value (½ max) were administered in a manner designed to simulate therapeutic cross-linking in patients. For all of the corneal experiments (with the notable exception of CXL), the corneal epithelium was left intact. An 8 mm Hessburg-Barron corneal reservoir was affixed to the corneal surface using the supplied syringe vacuum. A single drop of proparacaine (0.5%) was applied to the corneal surface prior to reservoir application. A buffer solution containing 0.1M NaHCO3 at either pH 8.5 or 7.4 was used. The pH of the sample and buffer mixture was titrated to the desired pH just prior to application to the eye using an appropriately concentrated HCl solution. Treatments were conducted over a 30-minute period at 25° C. with refreshing of the solution every five minutes. The control contralateral eye was treated identically with vehicle. Immediately after treatment, a central 6 mm corneal button was trephined from the treated region of each eye, was blotted on both sides using a paper towel to remove excess solution, and was analyzed using differential scanning calorimetry (DSC) [see below]. A minimum of two independent determinations were carried out for each condition described using a fresh cadaver head each time.
as §1
Due to the nature of the ex vivo cadaveric system used for corneal cross-linking, where each cadaver provided the treated eye and contralateral control, corneal samples were subjected to paired t-tests. […] All ΔTm values are reported in the form of mean value followed by standard error.

[4] = test system: human skin fibroblasts (HSFs); conditions: past cell toxicity studies; cited from earlier work
[5] = quantitative determination of formaldehyde release by 13C-NMR; assay type: physicochemical; conditions: pH 7.4 phosphate buffer, releaser 1.5 M; for Concentration of formaldehyde (M)a: free formaldehyde after 30 min at 37° C.; for Concentration of formaldehyde (M)b: free formaldehyde after 1 hour at 37° C.
Description: In the study corresponding with Table 2, NMR samples were prepared in NMR tubes as follows: X mg of formaldehyde-releaser, 500 ul of phosphate buffer (pH 7.4), and 500 ul of a solution of acetonitrile in D2O as internal standard (0.2M). […]. For each spectrum, the area of the formaldehyde signal at 82.5 ppm was compared with that of the acetonitrile signal at 1.3 ppm (internal standard).
• Concentration of formaldehyde-releasing agent (FAR), including nitroalcohols is 1.5 M. ^aConcentration of free formaldehyde (FA): after the sample was incubated in a water bath at 37° C. for 30 min. ^bConcentration of free formaldehyde (FA): after the sample was incubated in a water bath at 37° C. for 1 hour.

mouse = conditions: in vivo; cited from earlier work
[6] = test system: human skin fibroblasts (HSFs); conditions: 24 hrs exposure, 48 hr recovery
Description: Healthy human skin fibroblasts (HSFs) from ATCC (Manassas, Va.) were cultured in dermal cell basal media (ATCC) using a serum-free fibroblast growth kit provided by the company (ascorbic acid, EGF/TGF-β1, glutamine, hydrocortisone, insulin and FB growth supplements). Cells were grown in 5% CO2 and 95% ambient air at 37° C. until confluent. Once confluent, the cells were detached and seeded into 24 well plates at a density of 5×10^4 cells/well and were once again allowed to reach confluence. Next, cells were treated with FAR solutions over a range of concentrations (0.001 mM-5 mM) for 24 hrs. Following cross-linking exposure, all cell media, including FAR solution, was aspirated and each well was rinsed once with DPBS. Fresh media was then reintroduced and the cells were allowed to recover for 48 hrs. Subsequent to cell recovery, cell toxicity was assessed using a modified version of the trypan blue staining protocol. To that end, all culture media was aspirated and each well was rinsed with DPBS. Next, 0.4% trypan blue solution (Gibco, Grand Island, N.Y., USA) was added to each well for 3 minutes at 25° C. The staining solution was then aspirated and cells were washed twice with DPBS. Finally, extent of trypan blue staining and morphology of cells was visualized using an inverted microscope (Fisher Scientific Cat#12-560-45).
Planar cell culture experiments using Human Skin Fibroblasts (HSFs) were conducted to determine the toxicity thresholds of the FARs. The toxicity threshold was taken to be the highest concentration in mM at which all cells were alive following a 24 hour exposure to the FAR and a 48 hour recovery period.

rabbit = conditions: cited from earlier work
[7] = pH 7.4, half max allowed concentration, epithelium intact
[8] = pH 8.5, half max allowed concentration, epithelium intact
[9] = pH 8.5, concentrations as low as half max allowed

With O=[N+]([O-])C(Br)(CO)CO [BP, 2-bromo-2-nitro-1,3-propanediol, reference compound] the “Cross-linking time to gel formation” value [1] was 42 h, the “ΔTm of scleral tissue” value (porcine scleral tissue; 25 mM, pH 7.4, 30 mins) was roughly 0.5 °C and the “ΔTm of scleral tissue” value (porcine scleral tissue; 25 mM, pH 8.5, 30 mins) was roughly 0.5 °C. For the same compound, the Mutagenicity (Salmonella) was “Non- mutagenic§” and the “LD50 Oral rat” value (rat; oral) was 180 mg/kg.

For CC1(C)C(=O)N(CO)C(=O)N1CO [DMDM, 1,3-dimethylol-5,5-dimethyl-hydantoin], the “Octanol Partition Coefficient (Log P)” value [2] is given as −1.078 ± 0.654, the “cross-linking efficacy compared with nitroalcohol NP (250 mM, 60 minutes)” value [3] is given as “significantly more effective” and the “ΔTm (shift in denaturation temperature of corneal tissue)” value [3, 7] is given as 2.13±0.273 °C. The “ΔTm (shift in denaturation temperature of corneal tissue)” value [3, 8] was 2.04±0.225 °C, the “ΔTm of scleral tissue” value (porcine scleral tissue; 25 mM, pH 7.4, 30 mins) was 1.693±0.033 °C and the “scleral cross-linking effect (significance of ΔTm)” value (porcine scleral tissue; pH 7.4, concentrations as low as half max allowed) was “statistically significant cross-linking effects”. For the same compound, the “scleral cross-linking effect (significance of ΔTm)” value (porcine scleral tissue; [9]) was “statistically significant cross-linking effects” and the Mutagenicity (Salmonella) was “Non- mutagenic‡”.

In the case of O=CC(O)CO (stereo not shown) [Glyceraldehyde], the “toxic threshold for HSFs” value [4] is given as 1 mM.

For O=[N+]([O-])C(CO)(CO)CO [HNPD, 2-hydroxymethyl-2-nitro-1,3-propanediol, reference compound], the “Cross-linking time to gel formation” value [1] is given as 29 h, the “Octanol Partition Coefficient (Log P)” value [2] is given as −0.115 ± 0.770 and the “Concentration of formaldehyde (M)a” value [5] is given as 0.041 M. The “Concentration of formaldehyde (M)b” value [5] was 0.078 M, the “ΔTm of scleral tissue” value (porcine scleral tissue; 25 mM, pH 7.4, 30 mins) was “negative ΔTm” and the “ΔTm of scleral tissue” value (porcine scleral tissue; 25 mM, pH 8.5, 30 mins) was roughly 0.5 °C. The Mutagenicity (Salmonella) was “Non- mutagenic∥”, the “LD50 Oral mouse” value (mouse) was 10,550 mg/kg and the “LD50 Oral rat” value (rat; in vivo, po) was 1,917 mg/kg.

For O=C(NCNC(=O)NC1C(=O)NC(=O)N1CO)NC1C(=O)NC(=O)N1CO (stereo not shown) [IMU, N,N′-methylenebis[N-[3-(hydroxymethyl)-2,5-dioxo-4-imidazolidinyl]]-urea], the “Octanol Partition Coefficient (Log P)” value [2] is listed as −4.930 ± 0.959, the “ΔTm (shift in denaturation temperature of corneal tissue)” value [3, 8] is listed as −0.69±0.697 °C and the “negative shift in Tm of corneal tissue” value ([3]; pH 7.4, half max allowed concentration, epithelium intact, not significant) is listed as roughly 0.5 °C. For the same compound, the “ΔTm of scleral tissue” value (porcine scleral tissue; 25 mM, pH 7.4, 30 mins) was 1.280±0.392 °C, the “ΔTm of scleral tissue” value (porcine scleral tissue; 25 mM, pH 8.5, 30 mins) was 2.543±0.280 °C and the “cell state (Alive/Dead)” value ([6]; 0.001 mM) was “Alive”. For the same compound, the “cell state (Alive/Dead)” value ([6]; 0.01 mM) was “Alive”, the “cell state (Alive/Dead)” value ([6]; 0.1 mM) was “Alive” and the “cell state (Alive/Dead)” value ([6]; 1 mM) was “Dead”. The “cell state (Alive/Dead)” value ([6]; 5 mM) was “Dead” and the “LD50 Oral rat” value (rat; oral) was “LD50 Oral- rat-11,300 mg/kg”.

For CCC12COCN1COC2 [OCT, 5-Ethyl-3,7-dioxa-1-azabicyclo [3.3.0] octane], the “LD50 Dermal rabbit” value (rabbit; dermal) is given as 1,948 mg/kg, the “ΔTm (shift in denaturation temperature of corneal tissue)” value [3, 8] is given as 1.10±0.246 °C and the “ΔTm of scleral tissue” value (porcine scleral tissue; 25 mM, pH 7.4, 30 mins) is given as roughly 0.5 °C. For the same compound, the “ΔTm of scleral tissue” value (porcine scleral tissue; 25 mM, pH 8.5, 30 mins) was roughly 0.5 °C and the “LD50 Oral rat” value (rat; oral) was > 3,600 mg/kg.

In the case of O=C([O-])CNCO.[Na+] [SMG, sodium hydroxymethylglycinate], the “LD50 Dermal rabbit” value (rabbit; in vivo, topical or ocular) is given as “rabbit->2,000 mg/kg”, the “Octanol Partition Coefficient (Log P)” value [2] is given as −1.197 and the “cross-linking efficacy compared with nitroalcohol NP (250 mM, 60 minutes)” value [3] is given as “significantly more effective”. The “ΔTm (shift in denaturation temperature of corneal tissue)” value [3, 7] was 2.281±0.697 °C, the “ΔTm (shift in denaturation temperature of corneal tissue)” value [3, 8] was 3.573±0.578 °C and the “ΔTm of scleral tissue” value (porcine scleral tissue; 25 mM, pH 7.4, 30 mins) was 1.697±0.311 °C. For the same compound, the “ΔTm of scleral tissue” value (porcine scleral tissue; 25 mM, pH 8.5, 30 mins) was 5.463±0.419 °C, the “ΔTm of scleral tissue” value (porcine scleral tissue; pH 7.4, 39.06 mM (max allowed), 30 mins) was 0.007±0.222 °C and the “ΔTm of scleral tissue” value (porcine scleral tissue; pH 8.5, 39.06 mM (max allowed), 30 mins) was 9.073±0.450 °C. For the same compound, the “scleral cross-linking effect (significance of ΔTm)” value (porcine scleral tissue; [9]) was “statistically significant cross-linking effects”, the Mutagenicity (Salmonella) was “Non- mutagenic†” and the “cell state (Alive/Dead)” value ([6]; 0.001 mM) was “Alive”. For the same compound, the “cell state (Alive/Dead)” value ([6]; 0.01 mM) was “Alive”, the “cell state (Alive/Dead)” value ([6]; 0.1 mM) was “Alive” and the “cell state (Alive/Dead)” value ([6]; 1 mM) was “Dead”. For the same compound, the “cell state (Alive/Dead)” value ([6]; 5 mM) was “Dead” and the “LD50 Oral rat” value (rat; in vivo, po) was “LD50 Oral- rat-2,100 mg/kg, LD50 Dermal-”.

In the case of COC(=O)C1=CO[C@@H](O)[C@@H]2C(CO)=CC[C@H]12 [genipin], the “toxic threshold for HSFs” value [4] is given as “on par with bronopol”.

In the case of O=CCCCC=O [glutaraldehyde], the “toxic threshold for HSFs” value [4] is listed as “on par with bronopol”.

With CC(CO)(CO)[N+](=O)[O-] [nitro-diol, 2-methyl-2-nitro-1,3-propanediol] the “Cross-linking time to gel formation” value [1] was 66 h, the “Concentration of formaldehyde (M)a” value [5] was 0.011 M and the “Concentration of formaldehyde (M)b” value [5] was 0.044 M.

In the case of CC(CO)[N+](=O)[O-] (stereo not shown) [nitro-monol, 2-nitro-1-propanol], the “Concentration of formaldehyde (M)a” value [5] is reported as 0.018 M and the “Concentration of formaldehyde (M)b” value [5] is reported as 0.014 M.

For “N,N′-methylenebis[N-[3-(hydroxymethyl)-2,5-dioxo-4-imidazolidinyl]]-urea [IMU]”, the “Cross-linking time to gel formation” value [1] was 4 h.
